Measurements: patent US20250295639A1, “METHODS FOR TREATING HEART DISEASES” (Cytokinetics, Incorporated, priority 2024, published 2025)

How the values were obtained:
Type in all cases: in vivo, human
[1] = test system: patients with symptomatic obstructive HCM (oHCM); test: Phase 2 dose finding clinical trial of aficamten in symptomatic oHCM (10 weeks, Cohort 1 and Cohort 2)
Text: Overall, the incidence of adverse events was similar between treatment arms. […] No new cases of atrial fibrillation were reported by the investigators. In this dose-range finding trial, one patient experienced a transient decrease in left ventricular ejection fraction (LVEF) that required dose adjustment but not dose interruption. […] A multi-center, randomized, placebo-controlled, double-blind, dose finding phase 2 clinical trial of aficamten in patients with symptomatic obstructive HCM (oHCM) was conducted and described as Example 2 in WO 2024/031016 and in U.S. Patent Publication US-2024-0115554-A1, the disclosures of which are incorporated by reference herein.

[2] = test system: patients with nonobstructive hypertrophic cardiomyopathy (nHCM); test: FOREST-HCM open-label extension, 36-week analysis in nHCM
Text: An open-label extension clinical trial of aficamten in patients with symptomatic oHCM was initiated and was described as Example 3b in WO 2024/031016 and in U.S. Patent Publication US-2024-0115554-A1, the disclosures of which are incorporated by reference herein. The treatment duration is anticipated to be multiple years. The primary objective of the trial is to determine the safety and tolerability of aficamten over a 5-year period. Safety and efficacy of aficamten in patients with nonobstructive hypertrophic cardiomyopathy (nHCM). Thirty-four patients were enrolled (mean age±SD 57.2±15.3 years, 62% women). At baseline, patients were symptomatic (41% NYHA class III) with median (IQR) NT-proBNP and hs-cTnI of […] (735, 1735) and 24.9 ng/L (9.7, 46.4), respectively. By the end of the titration period (week 6), 3 (8.8%), 3 (8.8%), 6 (17.6%) and 22 (64.7%) patients received doses of 5, 10, 15, and 20 mg daily, respectively. At baseline, LVEF (mean±SD) was 70%±6.1; over 36-weeks, there was a modest reduction of 4.3%±5.2 (p<0.0001). NYHA class improved by ≥1 class in 27 (79.4%) patients, including 20 (58.8%) were asymptomatic (NYHA class I) by week 36. The mean KCCQ-CSS improved by 13.8±12.52 points relative to baseline, with 24/31 (77.4%) patients reporting improvements of ≥5 points. […] Most patients achieved the highest available dose while maintaining normal LVEF.

[3] = test system: patients with symptomatic oHCM; test: SEQUOIA-HCM secondary analysis: global remodelling response across five domains
Protocol: SEQUOIA-HCM recruited patients with symptomatic oHCM (New York Heart Association [NYHA]≥class 2, baseline pVO2 of ≤90% of predicted, respiratory exchange ratio [RER] of ≥1.05). Patients were randomized 1:1 to aficamten (5-20 mg daily) or placebo, and doses were adjusted during the first 6 weeks to achieve relief from obstruction (LVOT-G<30 mmHg) while maintaining left ventricular ejection fraction (LVEF) ≥50%, for 24 weeks. In this secondary analysis, remodelling response was assessed across five domains including: 1) left atrial volume index (LAVI) graded as normal (16-34 mL/m^2), mild (35-41 mL/m^2), moderate (42-48 mL/m^2), severe enlargement (>48 mL/m^2); 2) presence of left ventricular hypertrophy (LVH) with strain pattern on electrocardiogram (EKG) assessed by core lab, 3) Hyperdynamic (≥72) LVEF by core lab; 4)N-terminal brain natriuretic peptide (NT-proBNP) improvement of ≥50%, and; and 5) decrease of maximal wall thickness (MWT) ≥1.5 mm.

**Q.** Which tolerability ([1]; 10 weeks treatment) does the source give for CCc1nc(-c2ccc3c(c2)CC[C@H]3NC(=O)c2cnn(C)c2)no1 [aficamten, (R)—N-(5-(5-ethyl-1,2,4-oxadiazol-3-yl)-2,3-dihydro-1H-inden-1-yl)-1-methyl-1H-pyrazole-4-carboxamide] here?
**A.** The tolerability was “well tolerated”.

**Q.** What about the “patients achieving target goal of treatment (resting gradient <30 mmHg and post-Valsalva gradient <50 mmHg)” value ([1]; Cohort 1, Week 10) of the same compound?
**A.** Its value is 78.6%.

**Q.** And the “patients achieving target goal of treatment (resting gradient <30 mmHg and post-Valsalva gradient <50 mmHg)” value ([1]; Cohort 2, Week 10)?
**A.** Its value is 92.9%.

**Q.** What about the “LVEF after the end of treatment (reversibility)” value ([1]; both cohorts) of the same compound?
**A.** The value was “returned towards baseline within two weeks”.

**Q.** What about the “dose dependence of observed reductions in LVOT-G” value ([1]; human, in vivo) of the same compound?
**A.** Its value is “dose dependent”.

**Q.** And the “new cases of atrial fibrillation” value ([1]; human, in vivo)?
**A.** Its value is “No new cases”.

**Q.** And the “serious adverse events attributed to aficamten” value ([1]; human, in vivo)?
**A.** The value was “No serious adverse events”.

**Q.** And the “time of onset of reductions in LVOT-G after initiating treatment” value ([1]; human, in vivo)?
**A.** The value was “within two weeks”.

**Q.** What about the “patients reporting KCCQ-CSS improvements of ≥5 points” value ([2]; 24/31 patients) of the same compound?
**A.** The value was 77.4%.

**Q.** And the “patients asymptomatic (NYHA class I)” value ([2]; by week 36)?
**A.** Its value is 58.8%.

**Q.** And the “drug discontinuations due to adverse events” value ([2]; in vivo)?
**A.** Its value is “no drug discontinuations due to adverse events”.

**Q.** What about the “patients with LVEF<50%” value ([2]; in vivo) of the same compound?
**A.** The value was 5.9%.

**Q.** What about the “reduction in LVEF (mean±SD)” value ([2]; over 36-weeks) of the same compound?
**A.** Its value is 4.3%.

**Q.** What about the tolerability ([2]; over the study period) of the same compound?
**A.** The tolerability was “well tolerated”.

**Q.** What about the “NT-proBNP median change from baseline” value ([2]; week 36) of the same compound?
**A.** The value was -665.5 pg/mL.

**Q.** And the “hs-cTnI median change from baseline” value ([2]; week 36)?
**A.** Its value is -2.7 ng/L.

**Q.** And the “mean KCCQ-CSS improvement relative to baseline” value ([2]; week 36)?
**A.** Its value is 13.8±12.52 points.

**Q.** What about the “patients with NYHA class improved by ≥1 class” value ([2]; week 36) of the same compound?
**A.** The value was 79.4%.

**Q.** And the “patients with beneficial remodelling in at least one of five domains” value ([3]; 142 aficamten treated patients)?
**A.** Its value is 84%.

**Q.** What about the “patients with decrease by ≥50% in NT-proBNP” value ([3]; aficamten) of the same compound?
**A.** The value was 81.7%.

**Q.** What about the “patients with improvement in MWT (decrease ≥1.5 mm)” value ([3]; aficamten) of the same compound?
**A.** Its value is 47.9%.

**Q.** What about the “patients with resolution of hyperdynamic LVEF” value ([3]; aficamten) of the same compound?
**A.** Its value is 35.2%.

**Q.** And the “reduction in prevalence of LVH with strain pattern on EKG, patients” value ([3]; aficamten)?
**A.** Its value is 19.0%.

**Q.** And the “patients with improvement by one category in LAVI” value ([3]; among patients with abnormal LAVI (>34 mL/m^2) at baseline, 44/94)?
**A.** The value was 46.8%.

**Q.** And the “number needed to treat to achieve beneficial remodelling” value ([3]; vs placebo)?
**A.** Its value is 2.2.
